Measurements: patent publication US6596712B2, “Treatment of carcinomas using squalamine in combination with other anti-cancer agents or modalities” (Genaera Corporation, priority 1996, dated 2003)

How the values were obtained:
[1] = tested on: human MX-1 breast cancer line; assay type: in vivo; settings: single 200 mg/kg dose on day 14
Procedure: These documents each are entirely incorporated herein by reference. Squalamine was examined as adjunctive therapy following a single 200 mg/kg dose of cyclophosphamide. The cyclophosphamide was injected on day 14 following implantation of the tumor, at a time when the tumors measured 65-125 μl. […] The animals were then randomized to three treatment arms (each n=27): vehicle dosing only (Intralipid); squalamine given 10 mg/kg/day in Intralipid; and squalamine given 20 mg/kg/day in Intralipid for five days a week. Animals whose tumors exceeded 2 grams at any time during the experiment were euthanized. The experiment was continued for 90 days after initiating squalamine treatment to ensure that only mice experiencing long-term cures were still alive.

[2] = tested on: murine Lewis lung adenocarcinoma; experiment: Lung metastases of subcutaneous Lewis lung carcinoma; assay type: in vivo, C57BL/6 mice; settings: day 20; squalamine 20 mg/kg/day s.c.; cyclophosphamide 125 mg/kg i.p. days 7, 9, 11; cisplatin 10 mg/kg i.p. day 7
Procedure: The murine Lewis lung adenocarcinoma was implanted subcutaneously in the hind-leg of male C57BL/6 mice and allowed to grow for one week. Groups of mice were then left untreated or treated with either squalamine (20 mg/kg/day, s.c.), cyclophosphamide (125 mg/kg, i.p. on days 7, 9 and 11), cisplatin (10 mg/kg, i.p. on day 7), the combination of squalamine and cyclophosphamide, or the combination of squalamine and cisplatin. On day 20, the animals were sacrificed, and the mean number of lung metastases were determined for each group.

[3] = tested on: parental 2008 cell line; experiment: Human ovarian tumor 2008 xenograft with cisplatin; assay type: in vivo, female Swiss nude mice; settings: cisplatin single dose 4 mg/kg, squalamine 2 mg/kg, days 1-10
Procedure: Human ovarian tumor cells were injected subcutaneously (5×10^7 cells per animal) in the mid-back region of female Swiss nude mice. The human ovarian tumors were either the parental 2008 cell line (cf. R. J. Pietras et al., Oncogene 9, 1829-1838 (1994)) or a transfected variant overexpressing the Her-2/neu receptor. The overexpression of the Her-2/neu receptor is considered to make the resulting xenograft tumors more angiogenic and less responsive to chemotherapy. After one week, animals were randomized to groups receiving no treatment (controls), a single dose of cisplatin (4 mg/kg), daily treatment with squalamine (2 mg/kg, days 1-10) or cisplatin plus squalamine. The growth of tumors was then scored on day 28 following initiation of chemotherapy. The results were very similar with the parental 2008 tumor and the transfected variant overexpressing the Her-2/neu receptor. […] In this xenograft model, the [day 28 mean treated tumor weight increase divided by the day 28 mean control tumor weight increase (T/C)] x 100% was subtracted from 100% to give the tumor growth inhibition (TGI) value for each group.

[4] = tested on: NHE1, NHE2, NHE3; settings: FIG. 4; cited from earlier work
[5] = tested on: 9L gliosarcoma tumors (9L glioma); experiment: 9L glioma flank study; assay type: in vivo, Fisher 344 rats; settings: Day 25 or 26 after implantation; treatment from Day 5 per Table 4
Procedure: Four groups of rats (twenty total Fisher 344 rats, 200 g) were given s.q. transplants of 1 mm3 9L gliosarcoma tumors (9L glioma) on Day 0. The tumors were implanted in the rat flanks to avoid complications relating to adequate brain levels of squalamine. Randomization and treatment began on Day 5 according to the following scheme:
On Day 25 or 26 after tumor implantation, the tumor size was measured directly. The tumor size (i.e., its volume “V”) was estimated based on volumetric calculations determined from the measured length (“L”), width (“W”), and height (“H”) of the tumor (Vtumor spheroid˜0.5 ×L×W×H). The tumor volumes shown in Table 5 represent the mean tumor volumes for each treatment group for those animals that survived to the end of the experiment.

[6] = tested on: H460; experiment: H460 lung tumor xenograft with carboplatin; assay type: in vivo, nude BALBc mice
Procedure: (§1) About 5×10^6 cells from each of two human lung tumor lines, H460 (a rapidly proliferating large cell carcinoma cell line, ATCC HTB-177) and Calu-6 (an anaplastic carcinoma, ATCC HTB-56), were inoculated subcutaneously in the right foreleg of nude BALBc mice. Once tumors were visible (3-5 days) with a mean volume of approximately 50-80 mm^3, mice were treated intraperitoneally with 60 mg/kg carboplatin (single dose) or 20 mg/kg/squalamine (once daily for 5 days) or a combination of carboplatin and squalamine. There were 8 mice per group. Tumor growth inhibition was scored by quantifying the size of tumors once control tumors reached a size of 1.0 gram and determining the ratio of mean treated tumor size to mean control tumor size (T/C). Tumor growth inhibition was then scored as 100% x [1-(T/C)]. A separate antitumor activity variable, tumor growth delay, was scored for the tumors by determining the length of time it required for the mean tumor size in a treatment group to reach a size of 500 mm^3 (B. A. Teicher et al., Anticancer Research 18, 2567-2574 (1998)). The tumor growth inhibition seen with carboplatin plus squalamine was greater than that seen with carboplatin or squalamine alone. The relative inactivity of squalamine as a single agent by this assay endpoint supports the idea that squalamine is synergistic with carboplatin in the inhibition of these two human lung tumor xenografts. Similarly, it was determined that squalamine enhanced the tumor growth delay caused by carboplatin by an enhancement factor of >2.3 (Table 7).

[7] = tested on: Calu-6; experiment: Calu-6 lung tumor xenograft with carboplatin; assay type: in vivo, nude BALBc mice
Procedure: as §1

[8] = tested on: LNCaP cells; experiment: LNCaP cell growth in vitro ([3H]-thymidine incorporation); assay type: cell-based, human; settings: media containing serum
Procedure: The anti-proliferative effect of squalamine was evaluated in tissue culture by both crystal violet staining and [^3H]-thymidine incorporation, on the LNCaP/C4-2 human prostate cancer progression model. Developed by applicants' laboratory, this lineage-derived cell line recapitulates the progression of human neoplastic prostate disease from an androgen-dependent and minimally metastatic condition (LNCaP cells) to an androgen-independent (defined as being able to proliferate in castrate hosts) and highly aggressive state (C4-2 subline).
In vitro experiments were also conducted with the LNCAP cell line in which cell proliferation as judged by [3H]-thymidine uptake was determined. LNCaP cells were maintained as previously described (cf. J. T. Hsieh et al., Cancer Research 53, 2852-2857 (1993)). Cells were exposed to 20 ng/mL vascular endothelial growth factor (VEGF), 20 μg/mL squalamine or a combination of VEGF and squalamine. […] As a consequence, the mechanism underlying the effectiveness of squalamine treatment of the LNCaP tumor in vivo may under certain conditions also involve direct inhibition of tumor cell growth and/or induction of tumor cell death.

[9] = carboplatin 60 mg/kg i.p. single dose, squalamine 20 mg/kg once daily for 5 days
[10] = time for mean tumor size to reach 500 mm^3

## O=P1(N(CCCl)CCCl)NCCCO1 (centres unmarked) [cyclophosphamide, N,N-Bis-(2-chloroethyl)-N′-(3-hydroxypropyl)phosphordiamidic acid cyclic ester monohydrate, reference compound]
[1]
  tumor regression: partial regression in all animals and complete regression in a small fraction of the animals
[2]
  mean number of lung metastases: reduced the number of metastases

## N.N.[Cl][Pt][Cl] [Cisplatin, cis-Diamminedichloroplatinum, reference compound]
[2]
  mean number of lung metastases: reduced the number of metastases
[3]
  Day 28 Mean Tumor Size: 5108 mm^3
[3]; day 28
  Tumor Growth Inhibition (TGI) Index: 18%

## N=C(N)NC(=O)c1nc(Cl)c(N)nc1N [amiloride]
[4]
  NHE isoform selectivity: specifically act against NHE1 over NHE2 or NHE3

## O=NN(CCCl)C(=O)NCCCl [BCNU, 1,3-Bis(2-chloroethyl)-1-nitrosourea, reference compound]
[5]
  % Reduction (based on control volume): 86.1%
  Mean Tumor volume: 2,547 mm^3

## N.N.O=C([O-])C1(C(=O)[O-])CCC1.[Pt+2] [Carboplatin, carboplatin]
[6]; [9]
  Tumor Growth Inhibition (T/C): 50%
[6]; [10]
  Tumor Growth Delay: 2.9
[7]; [9]
  Tumor Growth Inhibition (T/C): 23%
[7]; [10]
  Tumor Growth Delay: 2.5

## VEGF
[8]; 20 ng/mL VEGF and/or 20 μg/mL squalamine, 24 hours
  Percent of Control [3H]-Thymidine Uptake: 84%
[8]; 20 ng/mL VEGF or 20 μg/mL squalamine
  effect on cell growth alone: minimal effects on cell growth
